The results in this text go back to US20070254882A1, “Sulfamide Derivatives and Pharmaceutical Composition for Upregulation of Lipid Metabolism Comprising Same” (CRYSTAL GENOMICS, INC., priority 2004, published 2007).

The target of assay [1] is T1, human PPAR α (Homo sapiens, UniProt Q07869).
T1 construct: expressed in transfected cells; host or cells: HepG2 (ATCC HB-8065) or 293T cells (ATCC CRL-1573)
T1 sequence (Q07869 239-466 limits assumed): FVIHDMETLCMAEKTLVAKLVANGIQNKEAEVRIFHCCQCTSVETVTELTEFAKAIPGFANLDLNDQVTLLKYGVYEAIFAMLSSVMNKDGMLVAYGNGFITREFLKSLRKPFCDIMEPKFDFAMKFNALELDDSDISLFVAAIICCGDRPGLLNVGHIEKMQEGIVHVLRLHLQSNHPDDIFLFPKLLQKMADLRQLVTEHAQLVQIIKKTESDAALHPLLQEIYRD
Nature of the assay: Exogeneous PPAR α agonist assay (GAL4 DNA binding domain/PPAR α ligand binding domain, luciferase) in HepG2 cells. The class given is cell-based. As to conditions: 25 μM compound, 48 hours, luciferase activity increase relative to the control. As for the experimental part: Step 1) Exogeneous PPAR α Agonist Assay
Cross-activation assay of the compounds of Examples 1 to 134 against human PPAR α was carried out using a DNA construct of PPAR α including its ligand binding domain and GAL4 DNA binding domain (Sher et al., Biochemistry 32, 5598-5604, 1993) to analyze whether any of the compounds binds to the ligand binding domain of PPAR α expressed by the construct to affect the PPAR α activity. When the GAL4 DNA binding domainm which is fused with PPAR α ligand binding domain, binds to UAS (upstream activation sequence) of firefly-luciferase, the luciferase is expressed. Therefore, the effect of each of the compounds of Examples on PPAR α activation can be evaluated by analyzing the activation of luciferase.
Specifically, 2×10^4 of HepG2 (ATCC HB-8065) or 293T cells (ATCC CRL-1573) were aliquotted into each well of a 96-well plate and cultured for overnight at 37° C. in a CO2 incubator (culture condition: DMEM, 10% FBS and 1% antibiotics).
The transformation of PPAR α DNA was traced as follows. First, a mixture of the following ingredients in amounts per well; Solution A (Promega) containing 50 ng of full length human PPAR α DNA, 50 ng of firefly-luciferase construct, 5 ng of Renilla-luciferase construct, 1.0 μl of PLUS™ reagent, and 8.3 μl of a serum-free medium containing no antibiotics; was prepared and kept at room temperature for 15 min. Solution B, which contained 0.5 μl of Lipofectamine™ reagent and 9.5 μl of serum-free medium without antibiotics per well, and Solution C, which contained 50 μl of serum-free medium per well), were prepared. Solutions A, B and C were mixed together to prepare lipofectamin-DNA complex, and the mixture was kept at room temperature for 15 min. Single layer of cells on each well of a 96-well plate were washed with serum-free DMEM, 70 μl of lipofectamine-DNA complex prepared above was added thereto, the plate was incubated at 37° C. in a 5% CO2 incubator for 3 hours to transform the cells, and […] of a diluted solution of each of the compounds of Examples 1 to 134 per well was added to each well to a final concentration 25 μM, and incubated at 37° C. in a CO2 incubator for 48 hours. Then, the medium was removed, 50 μl of passive lysis buffer (Promega) was added thereto, and the plate was shook at room temperature for 20 min to lysis cells. 40 μl of Luciferase Assay reagent of Dual Luciferase Kit […] per 20 μl of cell lysis buffer was added to the plate, followed by reacting at 20° C. for 8 seconds, and 40 μl of Stop & Glo reagent (Promega) as a stop solution was added thereto to quench the reaction. The luminescence intensities of F-luciferase and R-luciferase were measured with MicroLumat Plus (Berthord Technology).

The target of assay [2] is T1, human PPAR α. Kind of assay: Exogeneous PPAR α agonist assay (GAL4 DNA binding domain/PPAR α ligand binding domain, luciferase) in 293T cells. Details: scale not given here. Particulars: 25 μM compound, 48 hours, luciferase activity increase relative to the control. The class given is cell-based. In outline: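 HepG2 or 293T cells (2×10^4/well) lipofectamine-transfected 3 hours with PPAR α, UAS firefly-luciferase and Renilla-luciferase constructs. Compounds then added at 25 μM final and incubated 48 hours at 37° C. PPAR α activation measured as dual firefly/Renilla luciferase luminescence.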

Regarding `Cc1oc(-c2ccc(C(F)(F)F)cc2)nc1COc1cccc(CN(CC(=O)O)S(=O)(=O)N(C)C(C)C)c1` [Example 8, [N—(N-isopropyl-N-methylamino)sulfonyl-N-[3-[[2-(4-trifluoromethylphenyl)-5-methyloxazol-4-yl]methoxy]benzyl]amino]acetic acid], the “Activity at 25 μM Step 1 HepG2 cell” value in assay [1] stood at 31. For the same compound, the “Activity at 25 μM Step 1 293T cell” value in assay [2] worked out at 4.
Turning to `C=CCN(C)S(=O)(=O)N(CC(=O)O)Cc1cccc(OCc2nc(-c3ccc(C(F)(F)F)cc3)oc2C)c1` [Example 9, [N—(N-allyl-N-methylamino)sulfonyl-N-[3-[[2-(4-trifluoromethylphenyl)-5-methyloxazol-4-yl]methoxy]benzyl]amino]acetic acid], the “Activity at 25 μM Step 1 HepG2 cell” value in assay [1] came to 52. Further, the “Activity at 25 μM Step 1 293T cell” value in assay [2] is 3.
The matching figures for `CCN(CC)S(=O)(=O)N(CC(=O)O)Cc1cccc(OCCc2nc(-c3ccc(C)cc3)oc2C)c1` [Example 63, [N—(N,N-diethylamino)sulfonyl-N-[3-[2-[2-(4-methylphenyl)-5-methyloxazol-4-yl]ethoxy]benzyl]amino]acetic acid]: 33 and 3.
For `C#CCN(C)S(=O)(=O)N(CC(=O)O)Cc1cccc(OCCc2nc(-c3ccc(C(F)(F)F)cc3)oc2C)c1` [Example 70, [N—(N-methyl-N-propargylamino)sulfonyl-N-[3-[2-[2-(4-trifluoromethylphenyl)-5-methyloxazol-4-yl]ethoxy]benzyl]amino]acetic acid], in that order: 34 and 3.
For `CN(c1ccc(Cl)cc1)S(=O)(=O)N(CC(=O)O)Cc1ccc(OCCc2coc(-c3ccccc3)n2)cc1` [Example 133, [N—[[N-(4-chlorophenyl)-N-methyl]amino]sulfonyl-N-[4-[(2-phenyloxazol-4-yl)ethoxy]benzyl]amino]acetic acid], in that order: 34 and 4.
For `CCN(c1cccc(C)c1)S(=O)(=O)N(CC(=O)O)Cc1cccc(OCc2nc(-c3ccc(C(F)(F)F)cc3)oc2C)c1` [Example 21, [N—(N-ethyl-N-m-tolylamino)sulfonyl-N-[3-[[2-(4-trifluoromethylphenyl)-5-methyloxazol-4-yl]methoxy]benzyl]amino]acetic acid], the “Activity at 25 μM Step 1 HepG2 cell” value in assay [1] was 40. In assay [2], the “Activity at 25 μM Step 1 293T cell” value was determined as 5.
`Cc1ccc(-c2nc(COc3cccc(C(C)N(CC(=O)O)S(=O)(=O)N(C)C(C)C)c3)c(C)o2)cc1` (stereo not drawn) [Example 129, [N—(N-isopropyl-N-methylamino)sulfonyl-N-[1-[[3-(5-methyl-2-p-tolyloxazol-4-yl)methoxy]phenyl]ethyl]amino]acetic acid]: the “Activity at 25 μM Step 1 HepG2 cell” value in assay [1] is listed as 43. The “Activity at 25 μM Step 1 293T cell” value in assay [2] is given as 3.
The matching figures for `Cc1ccc(-c2nc(COc3cccc(CN(CCC(=O)O)S(=O)(=O)N(C)C)c3)c(C)o2)cc1` [Example 130, 3-[N—(N,N-dimethylamino)sulfonyl-N-[3-[(5-methyl-2-p-tolyloxazol-4-yl)methoxy]benzyl]amino]propionic acid]: 36 and 4.
With `Cc1ccc(-c2nc(CCOc3ccc(CN(CC(=O)O)S(=O)(=O)N(C)C(C)C)cc3)c(C)o2)cc1` [Example 102, [N—(N-isopropyl-N-methylamino)sulfonyl-N-[4-[2-[2-(4-methylphenyl)-5-methyloxazol-4-yl]ethoxy]benzyl]amino]acetic acid], the “Activity at 25 μM Step 1 HepG2 cell” value in assay [1] is 46. The “Activity at 25 μM Step 1 293T cell” value in assay [2] came out at 4.
For `Cc1ccc(-c2nc(COc3cccc(CN([C@@H](C)C(=O)O)S(=O)(=O)N(C)C)c3)c(C)o2)cc1` [Example 124, (S)-2-[N—(N,N-dimethylamino)sulfonyl-N-[3-[(5-methyl-2-p-tolyloxazol-4-yl)methoxy]benzyl]amino]propionic acid], in that order: 40 and 5.
The matching figures for `Cc1ccc(-c2nc(COc3cccc(C(C)N(CC(=O)O)S(=O)(=O)N4CCCC4)c3)c(C)o2)cc1` (stereo not drawn) [Example 127, [N-(pyrrolidinyl)sulfonyl-N-[1-[[3-(5-methyl-2-p-tolyloxazol-4-yl)methoxy]phenyl]ethyl]amino]acetic acid]: 50 and 3.
The matching figures for `Cc1ccc(-c2nc(COc3cccc(CN([C@H](C(=O)O)C(C)C)S(N)(=O)=O)c3)c(C)o2)cc1` [Example 2, (S)-3-methyl-2-[N-(sulfamoyl)-N-[3-[(5-methyl-2-p-tolyloxazol-4-yl)methoxy]benzyl]amino]butyric acid]: 25 and 6.
On to `Cc1ccc(-c2nc(CCOc3ccc(CN(CC(=O)O)S(=O)(=O)N(C)c4cccc(F)c4)cc3)c(C)o2)cc1` [Example 113, [N—[N-(3-fluorophenyl)-N-methylamino]sulfonyl-N-[4-[2-[2-(4-methylphenyl)-5-methyloxazol-4-yl]ethoxy]benzyl]amino]acetic acid], for which the “Activity at 25 μM Step 1 HepG2 cell” value in assay [1] is recorded as 29. Further, the “Activity at 25 μM Step 1 293T cell” value in assay [2] came out at 4.
The matching figures for `CCN(CC)S(=O)(=O)N(CC(=O)O)C(C)c1cccc(OCc2nc(-c3ccc(C)cc3)oc2C)c1` (stereo not drawn) [Example 128, [N—(N,N-diethylamino)sulfonyl-N-[1-[[3-(5-methyl-2-p-tolyloxazol-4-yl)methoxy]phenyl]ethyl]amino]acetic acid]: 25 and 2.
Turning to `Cc1ccc(-c2nc(COc3cccc(C(C)N(CC(=O)O)S(=O)(=O)N(C)C)c3)c(C)o2)cc1` (stereo not drawn) [Example 126, [N—(N,N-dimethylamino)sulfonyl-N-[1-[[3-(5-methyl-2-p-tolyloxazol-4-yl)methoxy]phenyl]ethyl]amino]acetic acid], the “Activity at 25 μM Step 1 HepG2 cell” value in assay [1] was found to be 62. For the same compound, the “Activity at 25 μM Step 1 293T cell” value in assay [2] is 4.
For the compound `CN(C)S(=O)(=O)N(CC(=O)O)Cc1ccc(OCCc2coc(-c3ccccc3)n2)cc1` [Example 132, [N—(N,N-dimethylamino)sulfonyl-N-[4-[(2-phenyloxazol-4-yl)ethoxy]benzyl]amino]acetic acid], the “Activity at 25 μM Step 1 HepG2 cell” value in assay [1] worked out at 32. Further, in assay [2], the “Activity at 25 μM Step 1 293T cell” value was 5.
On to `C#CCN(C)S(=O)(=O)N(CC(=O)O)Cc1cccc(OCc2nc(-c3ccc(C(F)(F)F)cc3)oc2C)c1` [Example 10, [N—(N-methyl-N-propargylamino)sulfonyl-N-[3-[[2-(4-trifluoromethylphenyl)-5-methyloxazol-4-yl]methoxy]benzyl]amino]acetic acid], for which the “Activity at 25 μM Step 1 HepG2 cell” value in assay [1] is 45. In addition, the “Activity at 25 μM Step 1 293T cell” value in assay [2] is given as 3.
With `Cc1ccc(-c2nc(COc3cccc(CN([C@H](C(=O)O)C(C)C)S(=O)(=O)N(C)C)c3)c(C)o2)cc1` [Example 125, (S)-3-methyl-2-[N—(N,N-dimethylamino)sulfonyl-N-[3-[(5-methyl-2-p-tolyloxazol-4-yl)methoxy]benzyl]amino]butyric acid], the “Activity at 25 μM Step 1 HepG2 cell” value in assay [1] amounted to 22. Further, the “Activity at 25 μM Step 1 293T cell” value in assay [2] was found to be 3.
